Laboratory results published in BindingDB's records for doi:10.1016/S0960-894X(97)00091-7 (1997).
Where a SMILES comes first, the peptide text is derived from it. The star is where a group is joined. Cbz = O=C(OCc1ccccc1)*

Experiments:
[1] = biological target: Chymotrypsinogen A (Bos taurus) (UniProt P00766); experiment: The compound was tested for the inhibition of alpha-Chymotrypsin, activity expressed as IC50
[2] = biological target: Chymotrypsinogen A (Bos taurus) (UniProt P00766); experiment: as above; remark: listed apart in the source

C[C@H](NC(=O)OCc1ccccc1)C(=O)N[C@@H](C)C(=O)N[C@H](C=O)Cc1ccccc1 [{1-[1-(1-Benzyl-2-oxo-ethylcarbamoyl)-ethylcarbamoyl]-ethyl}-carbamic acid benzyl ester] (Cbz-Ala-Ala-Phe-aldehyde)
IC50 [1]: 950 nM
Ki [2]: 2200 nM
